In one series the target is CYP1A2 (Homo sapiens (Human), UniProt P05177). As to the kind of experiment: in vitro. Particulars: microsomes.
For series [1] the following is noted: male, SD, in vivo.
A short description of series [2]: in vivo. Particulars: male, SD, rat; for bioavailability / Cmax: po, 30 mg/kg.
A further series in a line: physchem. Particulars: 25 °C, kinetic from dmso stock.
A short description of series [3]: in vivo. Particulars: male, CD1, mouse; for Cmax / bioavailability: po, 30 mg/kg.

Values after ≈ are worked out from the molar mass of the structure shown.

Chain of CYP1A2 (P05177 whole entry): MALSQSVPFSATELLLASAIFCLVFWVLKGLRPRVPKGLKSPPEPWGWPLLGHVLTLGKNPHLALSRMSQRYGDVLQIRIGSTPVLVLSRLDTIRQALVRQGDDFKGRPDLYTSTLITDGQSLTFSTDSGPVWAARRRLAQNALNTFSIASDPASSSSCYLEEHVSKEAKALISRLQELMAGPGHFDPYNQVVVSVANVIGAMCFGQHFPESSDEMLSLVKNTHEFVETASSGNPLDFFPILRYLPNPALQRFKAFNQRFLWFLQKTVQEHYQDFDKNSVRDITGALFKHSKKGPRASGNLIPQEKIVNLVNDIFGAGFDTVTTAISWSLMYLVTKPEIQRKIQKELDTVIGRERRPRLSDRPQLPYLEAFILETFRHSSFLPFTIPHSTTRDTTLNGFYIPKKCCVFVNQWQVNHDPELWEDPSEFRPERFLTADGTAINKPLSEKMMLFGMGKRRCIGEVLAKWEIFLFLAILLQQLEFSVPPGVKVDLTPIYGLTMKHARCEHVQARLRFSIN

As for `Cc1nc2c([nH]1)c(=O)n(C)c(=O)n2Cc1ccco1` [Furafylline], the inhibition – broadly, how much of the control response was suppressed – at 20 min, 10 µM on CYP1A2 is 78%.

With `Cc1n[nH]c2nc(-c3ccc(NS(=O)(=O)c4cc(F)ccc4F)cc3)nc(NCCN(C)C)c12` [Compound 45, N-(4-(4-((2-(dimethylamino)ethyl)amino)-3-methyl-1H-pyrazolo[3,4-d]pyrimidin-6-yl)phenyl)-2,5-difluorobenzenesulfonamide], the “pK Data in Rat: F” value in series [1] was “Cmax = 131 ng/mL F = 4.7%”. Also, the half-life (in general, how long it takes for the measured level to halve) in the series “in vivo [2]” is 3.63 h. The bioavailability in the series “in vivo [2]” amounted to 4.68%. The Cmax in “in vivo [2]” (Cmax (ng/ml)) and in “in vivo [2]” (pK Data in Rat: Cmax) was 131 ng/mL each time. Moreover, the solubility (usually the concentration that dissolves in the medium under given conditions) at 2 h in the series “physchem” (pH 5, fessif) was 277 µM (≈ 135 µg/mL); in “physchem” (pH 7.4, aqueous buffer), 7.98 µM (≈ 3.89 µg/mL).

For `Cc1n[nH]c2nc(-c3ccc(NS(=O)(=O)c4cc(Cl)ccc4F)c(F)c3)nc(OC3CCN(C)CC3)c12` [Compound 79, 5-chloro-2-fluoro-N-(2-fluoro-4-{3-methyl-4-[(1-methylpiperidin-4-yl)oxy]-1H-pyrazolo[3,4-d]pyrimidin-6-yl}phenyl)benzenesulfonamide], the half-life is 3 h in the series “in vivo [3]” and 5.06 h in the series “in vivo [2]”. The figures for the maximum concentration (Cmax) in the series “in vivo [3]” and in the series “in vivo [2]” (Cmax (ng/ml)) were 3720 ng/mL and 3400 ng/mL, respectively. Moreover, the bioavailability in “in vivo [3]” is 128%; in the series “in vivo [2]”, 40.5%. Also, the solubility at 2 h is 321 µM (≈ 176 µg/mL) in “physchem” (pH 5, fessif) and 2.6 µM (≈ 1.43 µg/mL) in the series “physchem” (pH 7.4, aqueous buffer).

For `Cc1n[nH]c2nc(-c3ccc(NS(=O)(=O)c4cc(Cl)ccc4F)c(F)c3)nc(NCCN(C)CCO)c12` [Compound 78, 5-chloro-2-fluoro-N-{2-fluoro-4-[4-({2-[(2-hydroxyethyl)(methyl)amino]ethyl}amino)-3-methyl-1H-pyrazolo[3,4-d]pyrimidin-6-yl]phenyl}benzenesulfonamide], the “pK Data in Rat: F” value in series [1] is given as “Cmax = 69 ng/mL F = 4.9%”. For the same molecule, in “in vivo [3]”, the half-life is 2.5 h. The Cmax (as a rule, the maximum level reached in the sampled fluid or tissue) in the series “in vivo [3]” is 111 ng/mL; in the series “in vivo [2]” (pK Data in Rat: Cmax), 69 ng/mL. Further, the bioavailability in “in vivo [3]” came to 4.9%. Also, the solubility at 2 h was 275 µM (≈ 152 µg/mL) in “physchem” (pH 5, fessif) and 16 µM (≈ 8.83 µg/mL) in the series “physchem” (pH 7.4, aqueous buffer).

Molecule `Cc1n[nH]c2nc(-c3ccc(NS(=O)(=O)c4ccccn4)cc3)nc(NCCN(C)C)c12` [Compound 24, N-[4-(4-[[2-(dimethylamino)ethyl]amino]-3-methyl-1H-pyrazolo[3,4-d]pyrimidin-6-yl)phenyl]pyridine-2-sulfonamide] registered a hERG/IC50 in the series with hERG / SGK1 (whole cell) of 20.7. Besides, in the series “in vivo [3]”, the half-life is 2.3 h, the Cmax turned out to be 45.1 ng/mL and the bioavailability turned out to be 1.55%. The same molecule showed a solubility at 2 h in “physchem” (pH 5, fessif) of 300 µM (≈ 136 µg/mL). The solubility at 2 h in “physchem” (pH 7.4, aqueous buffer) worked out at 278 µM (≈ 126 µg/mL).

Turning to `Cc1n[nH]c2nc(-c3ccc(NS(=O)(=O)c4cc(Cl)ccc4F)c(F)c3)nc(OC3CCN(C(C)C)CC3)c12` [Compound 28], in series [1], the “pK Data in Rat: F” value is listed as “Cmax = 4017 ng/mL F = 51%”. Further, in “in vivo [3]”, the half-life is 3.4 h, the Cmax turned out to be 4020 ng/mL and the bioavailability was 51%. In addition, in “in vivo [2]” (pK Data in Rat: Cmax), the concentration peaked (Cmax) at 4020 ng/mL. This molecule also displayed a solubility at 2 h in the series “physchem” (pH 5, fessif) of 293 µM (≈ 169 µg/mL). In addition, the solubility at 2 h in the series “physchem” (pH 7.4, aqueous buffer) was 1.7 µM (≈ 0.981 µg/mL).

The molecule `COc1ccncc1S(=O)(=O)Nc1ccc(-c2nc(NCCN(C)C)c3c(C)n[nH]c3n2)cc1` [Compound 19, N-(4-(4-(2-(dimethylamino)ethylamino)-3-methyl-1H-pyrazolo[3,4-d]pyrimidin-6-yl)phenyl)-4-methoxypyridine-3-sulfonamide] yielded a hERG/IC50 in the series on hERG / SGK1 (whole cell) of 1.5. The molecule also displayed a Cmax in “in vivo [3]” of 9.3 ng/mL. For the same molecule, the bioavailability in “in vivo [3]” was 0.31%. The solubility at 2 h in the series “physchem” (pH 5, fessif) stood at 297 µM (≈ 143 µg/mL); in “physchem” (pH 7.4, aqueous buffer), 37 µM (≈ 17.9 µg/mL).

`Cc1n[nH]c2nc(-c3ccc(NS(=O)(=O)c4cc(Cl)ccc4F)c(Cl)c3)nc(NCCN(C)CCO)c12` [Compound 99, 5-chloro-N-{2-chloro-4-[4-({2-[(2-hydroxyethyl)(methyl)amino]ethyl}amino)-3-methyl-1H-pyrazolo[3,4-d]pyrimidin-6-yl]phenyl}-2-fluorobenzenesulfonamide]: in series [1], the “pK Data in Rat: F” value was “Cmax = 141 ng/mL F = 5.6%”. The hERG/IC50 in the series with hERG / SGK1 (whole cell) amounted to 91. Further, in the series “in vivo [2]”, the half-life is 10 h and the bioavailability amounted to 5.6%. Besides, the Cmax in “in vivo [2]” (Cmax (ng/ml)) was determined as 141 ng/mL. The Cmax in the series “in vivo [2]” (pK Data in Rat: Cmax) stood at 141 ng/mL.

`COc1ccnc(S(=O)(=O)Nc2ccc(-c3nc(NCCN(C)C)c4c(C)n[nH]c4n3)cc2)c1` [Compound 27, N-(4-(4-((2-(dimethylamino)ethyl)amino)-3-methyl-1H-pyrazolo[3,4-d]pyrimidin-6-yl)phenyl)-4-methoxypyridine-2-sulfonamide] returned a hERG/IC50 with hERG / SGK1 (whole cell) of 341. In the series “in vivo [3]”, this molecule had a half-life of 2.7 h and a Cmax of 40.3 ng/mL. This molecule also showed a solubility at 2 h in “physchem” (pH 5, fessif) of 256 µM (≈ 124 µg/mL). Besides, the concentration in solution in the series “physchem” (pH 7.4, aqueous buffer) (solubility at 2 h) came to 36.5 µM (≈ 17.6 µg/mL).

As to `Cc1n[nH]c2nc(-c3ccc(NS(=O)(=O)c4cc(Cl)ccc4F)cc3)nc(OCCN(C)CCO)c12` [Compound 86, 5-chloro-2-fluoro-N-[4-(4-{2-[(2-hydroxyethyl)(methyl)amino]ethoxy}-3-methyl-1H-pyrazolo[3,4-d]pyrimidin-6-yl)phenyl]benzenesulfonamide], the half-life in “in vivo [3]” was 26 h; in the series “in vivo [2]”, 4.9 h. The Cmax amounted to 40.9 ng/mL in “in vivo [3]” and 354 ng/mL in “in vivo [2]” (Cmax (ng/ml)). Besides, the bioavailability in the series “in vivo [3]” stood at 3.1%; in the series “in vivo [2]” it was 6.7%. For the same molecule, the solubility at 2 h in “physchem” (pH 5, fessif) was 75 µM (≈ 40.1 µg/mL); in “physchem” (pH 7.4, aqueous buffer), 0.66 µM (≈ 0.353 µg/mL).

On to `Cc1n[nH]c2nc(-c3ccc(NS(=O)(=O)c4ccncc4F)cc3)nc(NCCN(C)C)c12` [Compound 15, N-[4-(4-[[2-(dimethylamino)ethyl]amino]-3-methyl-1H-pyrazolo[3,4-d]pyrimidin-6-yl)phenyl]-3-fluoropyridine-4-sulfonamide], for which the hERG/IC50 with hERG / SGK1 (whole cell) turned out to be 4.7. Also, the solubility at 2 h was 289 µM (≈ 136 µg/mL) in the series “physchem” (pH 5, fessif) and 282 µM (≈ 133 µg/mL) in the series “physchem” (pH 7.4, aqueous buffer).

For `Cc1n[nH]c2nc(-c3ccc(NS(=O)(=O)c4cccnc4)cc3)nc(NCCN(C)C)c12` [Compound 23, N-[4-(4-[[2-(dimethylamino)ethyl]amino]-3-methyl-1H-pyrazolo[3,4-d]pyrimidin-6-yl)phenyl]pyridine-3-sulfonamide], the hERG/IC50 in the series on hERG / SGK1 (whole cell) is reported as 4.1. In addition, the solubility at 2 h in the series “physchem” (pH 5, fessif) turned out to be 274 µM (≈ 124 µg/mL); in the series “physchem” (pH 7.4, aqueous buffer), 13.7 µM (≈ 6.2 µg/mL).

For `Cc1n[nH]c2nc(-c3ccc(NS(=O)(=O)c4cc(Cl)ccc4F)cc3)nc(NCCN(C)CCO)c12` [Compound 22, 5-chloro-2-fluoro-N-[4-[4-([2-[(2-hydroxyethyl)(methyl)amino]ethyl]amino)-3-methyl-1H-pyrazolo[3,4-d]pyrimidin-6-yl]phenyl]benzenesulfonamide], in series [1], the “pK Data in Rat: F” value is recorded as “Cmax = 42 ng/mL F = 2.8%”. Also, the hERG/IC50 with hERG / SGK1 (whole cell) was found to be 201. For the same molecule, the half-life is 2.3 h in the series “in vivo [3]” and 5.14 h in “in vivo [2]”. Moreover, the Cmax worked out at 37.9 ng/mL in “in vivo [3]”, 41.9 ng/mL in “in vivo [2]” (Cmax (ng/ml)) and 42 ng/mL in the series “in vivo [2]” (pK Data in Rat: Cmax). The bioavailability in “in vivo [3]” came out at 2.5%; in the series “in vivo [2]”, 2.79%. Also, the solubility at 2 h worked out at 289 µM (≈ 154 µg/mL) in the series “physchem” (pH 5, fessif) and 8.37 µM (≈ 4.47 µg/mL) in “physchem” (pH 7.4, aqueous buffer).

(Values after patent US20240309005A1 (priority 2021, published 2024).)
